# Species: Rattus norvegicus
# Experiment: Open TG-GATES - Regimen: Single
# Type: toxicity, organism-based, Sprague-Dawley
# Design: regimen Single, gender Male, age 6 weeks
# Conditions: in vivo, po, 300 mg/kg, route gavage, dose level Middle; for APTT / Bas / Eos / Fbg / Hb / Ht / Lym / MCH / MCHC / MCV / Mono / Neu / PT / Plat / RBC / Ret / WBC: tissue Blood; for KIDNEY_L / KIDNEY_R / KIDNEY_TOTAL: tissue Kidney; for LIVER: tissue Liver; for A/G / ALP / ALT / AST / BUN / CRE / Ca / Cl / DBIL / GLC / IP / K / LDH / Na / PL / RALB / TBIL / TC / TG / TP / gamma-GTP: tissue Plasma
smiles,measurement,setting,value
CN(C)[C@@H]1C(O)=C(C(N)=O)C(=O)[C@@]2(O)C(O)=C3C(=O)c4c(O)cccc4[C@@](C)(O)[C@H]3C[C@@H]12 [TETRACYCLINE],TERMINAL_BW,3 h,186.7 g
same,APTT,3 h,16.4 s
same,Bas,3 h,0%
same,Eos,3 h,0.6%
same,Fbg,3 h,198 mg/dL
same,Hb,3 h,13.6 g/dL
same,Ht,3 h,41%
same,Lym,3 h,76.4%
same,MCH,3 h,21.9 pg
same,MCHC,3 h,33.1%
same,MCV,3 h,66.2 fL
same,Mono,3 h,8.4%
same,Neu,3 h,14.8%
same,PT,3 h,12.3 s
same,Plat,3 h,97.2 x10_4/uL
same,RBC,3 h,619.2 x10_4/ul
same,Ret,3 h,10%
same,WBC,3 h,122.2 x10_2/uL
same,KIDNEY_L,3 h,0.9 g
same,KIDNEY_R,3 h,0.9 g
same,KIDNEY_TOTAL,3 h,1.8 g
same,LIVER,3 h,9 g
same,A/G,3 h,1.9
same,ALP,3 h,940.2 IU/L
same,ALT,3 h,42.2 IU/L
same,AST,3 h,74.4 IU/L
same,BUN,3 h,13.2 mg/dL
same,CRE,3 h,0.5 mg/dL
same,Ca,3 h,10.9 mg/dL
same,Cl,3 h,104.6 meq/L
same,DBIL,3 h,0.026 mg/dL
same,GLC,3 h,179.6 mg/dL
same,IP,3 h,11.5 mg/dL
same,K,3 h,5.4 meq/L
same,LDH,3 h,103 IU/L
same,Na,3 h,137.2 meq/L
same,PL,3 h,129.6 mg/dL
same,RALB,3 h,3.6 g/dL
same,TBIL,3 h,0.4 mg/dL
same,TC,3 h,71.4 mg/dL
same,TG,3 h,39.4 mg/dL
same,TP,3 h,5.5 g/dL
same,gamma-GTP,3 h,1.6 IU/L
same,TERMINAL_BW,6 h,183.9 g
same,APTT,6 h,17.1 s
same,Bas,6 h,0%
same,Eos,6 h,0.6%
same,Fbg,6 h,206.8 mg/dL
same,Hb,6 h,13.4 g/dL
same,Ht,6 h,40.3%
same,Lym,6 h,78.6%
same,MCH,6 h,22.5 pg
same,MCHC,6 h,33.3%
same,MCV,6 h,67.7 fL
same,Mono,6 h,5.6%
same,Neu,6 h,15.4%
same,PT,6 h,12.1 s
same,Plat,6 h,103.8 x10_4/uL
same,RBC,6 h,595.2 x10_4/ul
same,Ret,6 h,10.1%
same,WBC,6 h,91.7 x10_2/uL
same,KIDNEY_L,6 h,0.9 g
same,KIDNEY_R,6 h,0.9 g
same,KIDNEY_TOTAL,6 h,1.7 g
same,LIVER,6 h,8.3 g
same,A/G,6 h,2.1
same,ALP,6 h,930.4 IU/L
same,ALT,6 h,36.4 IU/L
same,AST,6 h,72.4 IU/L
same,BUN,6 h,12.4 mg/dL
same,CRE,6 h,0.4 mg/dL
same,Ca,6 h,10.7 mg/dL
same,Cl,6 h,106 meq/L
same,DBIL,6 h,0.012 mg/dL
same,GLC,6 h,193.8 mg/dL
same,IP,6 h,11.1 mg/dL
same,K,6 h,5.2 meq/L
same,LDH,6 h,104.4 IU/L
same,Na,6 h,137.2 meq/L
same,PL,6 h,130.6 mg/dL
same,RALB,6 h,3.6 g/dL
same,TBIL,6 h,0.4 mg/dL
same,TC,6 h,72.8 mg/dL
same,TG,6 h,49.4 mg/dL
same,TP,6 h,5.4 g/dL
same,gamma-GTP,6 h,1.4 IU/L
same,TERMINAL_BW,9 h,180.6 g
same,APTT,9 h,16.6 s
same,Bas,9 h,0%
same,Eos,9 h,0.6%
same,Fbg,9 h,211 mg/dL
same,Hb,9 h,13.1 g/dL
same,Ht,9 h,39.7%
same,Lym,9 h,79.6%
same,MCH,9 h,21.7 pg
same,MCHC,9 h,33.1%
same,MCV,9 h,65.7 fL
same,Mono,9 h,7.6%
same,Neu,9 h,12.4%
same,PT,9 h,12.3 s
same,Plat,9 h,102.2 x10_4/uL
same,RBC,9 h,603.4 x10_4/ul
same,Ret,9 h,9.1%
same,WBC,9 h,101.6 x10_2/uL
same,KIDNEY_L,9 h,0.8 g
same,KIDNEY_R,9 h,0.8 g
same,KIDNEY_TOTAL,9 h,1.7 g
same,LIVER,9 h,7.5 g
same,A/G,9 h,2.4
same,ALP,9 h,849.2 IU/L
same,ALT,9 h,37 IU/L
same,AST,9 h,71.2 IU/L
same,BUN,9 h,13.4 mg/dL
same,CRE,9 h,0.4 mg/dL
same,Ca,9 h,10.6 mg/dL
same,Cl,9 h,106.2 meq/L
same,DBIL,9 h,0.036 mg/dL
same,GLC,9 h,182.8 mg/dL
same,IP,9 h,10.4 mg/dL
same,K,9 h,4.7 meq/L
same,LDH,9 h,92.6 IU/L
same,Na,9 h,138.4 meq/L
same,PL,9 h,126.8 mg/dL
same,RALB,9 h,3.8 g/dL
same,TBIL,9 h,0.4 mg/dL
same,TC,9 h,75.6 mg/dL
same,TG,9 h,24.6 mg/dL
same,TP,9 h,5.4 g/dL
same,gamma-GTP,9 h,2.2 IU/L
same,TERMINAL_BW,24 h,200.3 g
same,APTT,24 h,15.9 s
same,Bas,24 h,0%
same,Eos,24 h,0.8%
same,Fbg,24 h,202.8 mg/dL
same,Hb,24 h,13 g/dL
same,Ht,24 h,39.3%
same,Lym,24 h,83.6%
same,MCH,24 h,21.6 pg
same,MCHC,24 h,33.2%
same,MCV,24 h,65 fL
same,Mono,24 h,8.2%
same,Neu,24 h,7.4%
same,PT,24 h,12.1 s
same,Plat,24 h,117.3 x10_4/uL
same,RBC,24 h,605 x10_4/ul
same,Ret,24 h,9.9%
same,WBC,24 h,102.9 x10_2/uL
same,KIDNEY_L,24 h,0.9 g
same,KIDNEY_R,24 h,0.9 g
same,KIDNEY_TOTAL,24 h,1.9 g
same,LIVER,24 h,8.5 g
same,A/G,24 h,2.2
same,ALP,24 h,1031.8 IU/L
same,ALT,24 h,41.6 IU/L
same,AST,24 h,73.8 IU/L
same,BUN,24 h,18.4 mg/dL
same,CRE,24 h,0.5 mg/dL
same,Ca,24 h,11.3 mg/dL
same,Cl,24 h,105 meq/L
same,DBIL,24 h,0.016 mg/dL
same,GLC,24 h,184.4 mg/dL
same,IP,24 h,9.9 mg/dL
same,K,24 h,5 meq/L
same,LDH,24 h,96.8 IU/L
same,Na,24 h,141 meq/L
same,PL,24 h,149.2 mg/dL
same,RALB,24 h,3.8 g/dL
same,TBIL,24 h,0.4 mg/dL
same,TC,24 h,80.8 mg/dL
same,TG,24 h,57.2 mg/dL
same,TP,24 h,5.6 g/dL
same,gamma-GTP,24 h,1.4 IU/L

# Reference: ChEMBL document CHEMBL3885861, “Open TG-GATES”
